Data on 24 compounds can be found in ChEMBL document CHEMBL3352123, “Structure activity relationship study of curcumin analogues toward the amyloid-beta aggregation inhibitor” (Bioorg Med Chem Lett, 2014).

Series [1] in a line: Aqueous solubility of the compound after 12 hrs by shake-flask method. The class given is physicochemical. Particulars: buffer.
For series [2], the target named is Amyloid-beta precursor protein (Homo sapiens) (UniProt P05067). As to the kind of experiment: Inhibition of amyloid beta-42 self-aggregation (unknown origin) at 25 uM after 20 hrs by ThT fluorescence assay.
Amyloid-beta precursor protein (Homo sapiens), sequence (P05067 whole entry): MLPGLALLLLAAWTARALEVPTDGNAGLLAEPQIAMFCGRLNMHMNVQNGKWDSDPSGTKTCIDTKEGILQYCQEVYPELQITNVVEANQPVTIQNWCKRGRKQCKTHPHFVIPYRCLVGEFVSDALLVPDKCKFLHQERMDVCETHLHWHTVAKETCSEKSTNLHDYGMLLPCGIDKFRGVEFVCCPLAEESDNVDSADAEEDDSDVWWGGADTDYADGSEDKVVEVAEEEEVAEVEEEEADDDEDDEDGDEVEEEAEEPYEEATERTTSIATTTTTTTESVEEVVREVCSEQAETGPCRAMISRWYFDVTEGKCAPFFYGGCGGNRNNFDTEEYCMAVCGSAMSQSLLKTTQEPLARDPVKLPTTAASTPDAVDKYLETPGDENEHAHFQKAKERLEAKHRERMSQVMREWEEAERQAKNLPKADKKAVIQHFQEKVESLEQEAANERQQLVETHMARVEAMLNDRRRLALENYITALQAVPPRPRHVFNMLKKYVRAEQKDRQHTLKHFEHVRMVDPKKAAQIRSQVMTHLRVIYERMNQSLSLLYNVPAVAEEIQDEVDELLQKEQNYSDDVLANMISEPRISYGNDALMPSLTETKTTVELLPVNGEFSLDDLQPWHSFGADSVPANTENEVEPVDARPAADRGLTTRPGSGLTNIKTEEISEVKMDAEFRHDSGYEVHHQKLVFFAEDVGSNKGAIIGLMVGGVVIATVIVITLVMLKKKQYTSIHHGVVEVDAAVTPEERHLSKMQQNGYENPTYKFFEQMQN

In brackets after ≈: the same amount, converted by molar mass.

Consider `COc1cc(/C=C/c2cc(/C=C/c3ccc(O)c(OC)c3)[nH]n2)ccc1O` [CURCUMIN PYRAZOLE], for which the thermodynamic solubility (as a rule, the concentration in solution at equilibrium with solid) at 12 h in series [1] is 1.2 µM (≈ 0.437 µg/mL). Moreover, the inhibition – broadly, the share of the control response that was lost under treatment – in series [2] came to 51%.

In series [2], `O=C(/C=C/c1cccc([N+](=O)[O-])c1)CC(=O)/C=C/c1ccc(O)c(O)c1` gave an inhibition of 97%.

`O=C(/C=C/c1ccc(O)c(O)c1)CC(=O)/C=C/c1cc(O)c(O)c(O)c1` had a thermodynamic solubility at 12 h in series [1] of 50 µM (≈ 17.8 µg/mL). Further, in series [2], the inhibition turned out to be 100%.

`O=C(/C=C/c1cccc(O)c1)CC(=O)/C=C/c1cccc(O)c1`: the inhibition in series [2] was found to be 79%.

`N#Cc1cccc(/C=C/C(=O)CC(=O)/C=C/c2ccc(O)c(O)c2)c1` registered an inhibition in series [2] of 96%.

Take `O=C(/C=C/c1cc(O)c(O)c(O)c1)CC(=O)/C=C/c1ccccc1O`: the solubility (thermodynamic) at 12 h in series [1] came out at 47 µM (≈ 16 µg/mL). This compound showed an inhibition in series [2] of 73%.

`Oc1ccc(/C=C/c2cc(/C=C/c3ccccc3O)[nH]n2)cc1O` returned a thermodynamic solubility at 12 h in series [1] of 16 µM (≈ 5.13 µg/mL). The compound also showed an inhibition in series [2] of 47%.

Consider `COc1cccc(/C=C/C(=O)CC(=O)/C=C/c2ccc(O)c(O)c2)c1`, for which the solubility (thermodynamic) at 12 h in series [1] is 0.11 µM (≈ 0.0372 µg/mL). The inhibition in series [2] worked out at 95%.

`O=C(/C=C/c1cc(O)c(O)c(O)c1)CC(=O)/C=C/c1cc(O)c(O)c(O)c1` yielded a solubility (thermodynamic) at 12 h in series [1] of 6.2 µM (≈ 2.31 µg/mL). The compound also yielded an inhibition in series [2] of 46%.

In turn, `O=C(/C=C/c1ccc(O)cc1)CC(=O)/C=C/c1ccc(O)cc1` came in with an inhibition in series [2] of 75%.

With `COc1c(O)cc(/C=C/C(=O)CC(=O)/C=C/c2ccc(O)c(O)c2)cc1O`, the thermodynamic solubility at 12 h in series [1] is 5.4 µM (≈ 2 µg/mL). For the same compound, in series [2], the inhibition was found to be 100%.

For the compound `COc1cc(/C=C/C(=O)CC(=O)/C=C/c2ccc(O)c(OC)c2)ccc1O` [CURCUMIN], in series [1], the solubility (thermodynamic) at 12 h came to 0.19 µM (≈ 0.07 µg/mL). The compound also had an inhibition in series [2] of 80%.

With `O=C(/C=C/c1cccc(O)c1)CC(=O)/C=C/c1ccc(O)c(O)c1`, the solubility (thermodynamic) at 12 h in series [1] came to 6.2 µM (≈ 2.01 µg/mL). In addition, in series [2], the inhibition stood at 99%.

Regarding `O=C(/C=C/c1ccc(O)c(O)c1)CC(=O)/C=C/c1ccc(O)c(O)c1` [DIDEMETHYLCURCUMIN], the solubility (thermodynamic) at 12 h in series [1] came to 2.4 µM (≈ 0.817 µg/mL). Besides, the inhibition in series [2] amounted to 99%.

In series [1], `O=C(/C=C/c1ccc(O)cc1)CC(=O)/C=C/c1ccc(O)c(O)c1` returned a solubility (thermodynamic) at 12 h of 0.66 µM (≈ 0.214 µg/mL). The inhibition in series [2] came to 89%.

In turn, `COc1ccc(/C=C/C(=O)CC(=O)/C=C/c2ccc(O)c(O)c2)cc1` displayed a thermodynamic solubility at 12 h in series [1] of 0.009 µM (≈ 0.00305 µg/mL). The compound further registered an inhibition in series [2] of 95%.

`COc1cc(/C=C/C(=O)C(C)(C)C(=O)/C=C/c2ccc(O)c(OC)c2)ccc1O` registered a solubility (thermodynamic) at 12 h in series [1] of 12 µM (≈ 4.76 µg/mL). For the same compound, the inhibition in series [2] stood at 30%.

The compound `COc1ccc(/C=C/C(=O)/C=C(O)/C=C/c2ccc(OC)c(OC)c2)cc1OC` gave an inhibition in series [2] of 0%.

As for `O=C(/C=C/c1ccccc1O)CC(=O)/C=C/c1ccccc1O`, the inhibition in series [2] was 80%.

Regarding `O=C(/C=C/c1ccc(O)c(O)c1)CC(=O)/C=C/c1ccccc1O`, the solubility (thermodynamic) at 12 h in series [1] stood at 31 µM (≈ 10.1 µg/mL). Further, the inhibition in series [2] was 100%.

On to `COc1cc(/C=C/C(=O)CC(=O)/C=C/c2ccc(O)c(O)c2)cc(OC)c1OC`, for which the inhibition in series [2] stood at 95%.

`COc1ccccc1/C=C/C(=O)CC(=O)/C=C/c1ccc(O)c(O)c1` yielded a solubility (thermodynamic) at 12 h in series [1] of 0.12 µM (≈ 0.0406 µg/mL). The compound also displayed an inhibition in series [2] of 100%.

`Oc1cccc(/C=C/c2cc(/C=C/c3ccc(O)c(O)c3)n[nH]2)c1`: the solubility (thermodynamic) at 12 h in series [1] was 10 µM (≈ 3.2 µg/mL).

In series [1], `Oc1ccc(/C=C/c2cc(/C=C/c3ccc(O)c(O)c3)[nH]n2)cc1O` came in with a thermodynamic solubility at 12 h of 98 µM (≈ 33 µg/mL). This compound also displayed an inhibition in series [2] of 90%.
